Laboratory results as given in US9187411B2, “Leukotriene B4 antagonist compound” (Eli Lilly and Company, priority 2012, dated 2015).
Marks after values point to notes of the source that are not given here.

Legend:
[1] = test system: LTB4-induced CD11b expression in neutrophils; test: CD11b assay, human whole blood; format: cell-based; conditions: Neutrophil, 10 nM LTB4
Description: (§1) EDTA anti-coagulated blood is collected from human donors or mice as before. For in vitro experiments, 8 or 10 point dose response curves of test compounds are assayed at final concentrations of 78 nM-10 μM or 20 nM-10 μM respectively. ½ serial dilutions of compound at 1000× of final assayed concentration are prepared in DMSO. Compound is then diluted to 10× in DPBS (DMSO concentration is now 1%). 10 μL of compound dilutions (at 10× in DPBS) or 1% DMSO in DPBS are added to wells of a 96 deep well plate. 90 μL whole blood is added and incubated 20 min at room temperature. 11 μL of 10×LTB4 (final concentration 25 nM for mouse or 10 nM human) is added and incubated at 37° C. for 30 min. The reaction is stopped by incubating the plate on ice for 5 min. The cells are stained with 10 μL anti-mouse or anti-human CD11b-PE (BD Biosciences diluted 1:20 for mouse and undiluted for human) and incubated on ice for 30 min in the dark (for mouse experiments, 10 μL anti-mouse LY6G-FITC antibody (BD Pharmingen) diluted 1:25 is added for the final 10 min) Red blood cells (RBCs) are lysed by adding 1.5 mL of 1×BD FACSlyse (BD Biosciences) and incubating for 10 min at room temperature in the dark. […] Data are analyzed with WinList software (Verity Software House) to determine mean and median fluorescent intensity values for CD11b-PE from neutrophil population.

[2] = test system: LTB4-induced CD11b expression in neutrophils; test: CD11b assay, mouse whole blood; format: cell-based; conditions: Neutrophil, 25 nM LTB4
Description: as §1

[3] = test system: BCA atherosclerosis lesions in LDLr KO mice; test: LDLr KO mouse brachiocephalic arch atherosclerosis model; format: in vivo; conditions: for Lesion area: 4 weeks, vehicle 50,686; for Macrophage area (brown color): vehicle 18,571; for reduction of lesion area compared to vehicle / reduction of BCA cholesteryl ester (CE) content compared to vehicle: Table 3; for Cholesteryl ester: BCA, vehicle 22.50
Description: The compound of Example 2 is tested in the low density lipoprotein (LDL) receptor knock-out (LDLr KO) mouse model of atherosclerosis. Mice deficient in the ability to encode and synthesize the LDL receptor (LDLr KO) are hypercholesterolemic, especially when maintained on high cholesterol diet, Ishibashi et al. J. Clin. Invest. (1994), 93: 1885-1893. In the large arteries, LDLr KO mice develop spontaneous atherosclerotic lesions that mimic major features of the cellular, lipid, and extracellular matrix composition of human lesions. An important constituent of both human and mouse lesions is the lipid-laden macrophage or “foam cell” in the arterial subendothelium. The esterified cholesterol stored by macrophages is a surrogate for lesion development. Assay of esterified cholesterol directly from mouse arterial tissue (by LC/MS) provides a rapid index of lesion burden. The LDLr KO model used in the present study takes advantage of the rapid development of mature atherosclerotic plaques in the brachiocephalic artery (BCA). Primary endpoints for the study are arterial cholesteryl ester content and lesion dimensions obtained by light microscopic measurement of lesions in serial cross-sections of the artery.
LDLr KO mice (JAX #002207), 7 week old males, were obtained from The Jackson Laboratory (Bar Harbor, Me.). Upon arrival at the testing facility and continuing for a total of 10 weeks, mice were housed individually and fed the atherogenic diet TD.88137 (Teklad) ad libitum. During the first 6 weeks, the mice rested undisturbed in their cages. During the last 4 weeks, the mice received the test compound twice daily by oral gavage.

[4] = biological target: T1, high-affinity (BLT1) LTB4 receptor (Homo sapiens, UniProt Q15722); test: FLIPR calcium release assay (LTB4-induced calcium mobilization); format: cell-based; conditions: CHO-K1 cells expressing BLT1, 8 nM LTB4, n of 2
T1 construct: expressed in transfected cells
T1 sequence (Q15722 whole entry): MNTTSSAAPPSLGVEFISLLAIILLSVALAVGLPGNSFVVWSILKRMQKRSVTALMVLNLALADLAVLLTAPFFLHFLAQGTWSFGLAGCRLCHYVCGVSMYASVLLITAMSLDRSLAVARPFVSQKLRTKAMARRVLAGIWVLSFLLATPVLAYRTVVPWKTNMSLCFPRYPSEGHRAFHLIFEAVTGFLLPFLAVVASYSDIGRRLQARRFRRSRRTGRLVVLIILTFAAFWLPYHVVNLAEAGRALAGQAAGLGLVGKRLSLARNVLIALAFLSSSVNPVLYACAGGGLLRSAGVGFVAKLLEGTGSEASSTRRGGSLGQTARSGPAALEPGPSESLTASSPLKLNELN
Description: hBLT1/CHO-K1 Stable Xcell Line Preparations: Human BLT1 receptor DNA (National Center for Biotechnology Information (NCBI), Reference Sequence NM_181657) is synthesized and cloned into expression vector pcDNA3.1/Hygro(+) (Invitrogen V87020). The cDNA expression vector construct is transfected into Chinese hamster ovary (CHO-K1) cells (American Type Culture Collection (ATCC) CCL-61) using Lipofectamine 2000 (Invitrogen) as transfection reagent. Cells are cultured in selective Dulbecco's Modified Eagle Medium (DMEM) containing 200 μg/mL Hygromycin, 24 hours post transfection. Single clones are isolated and screened for BLT1 expression and function using Western Blot analysis and Fluorometric Imaging Plate Reader (FLIPR®) calcium release assay.
Chinese hamster ovary (CHO-K1) cells stably expressing the high-affinity (BLT1) LTB4 receptor are seeded at 10,000 cells/well in a 96 well plate (Corning) in growth medium containing DMEM/F-12 (3:1) w/o phenol red (Invitrogen), 5% fetal bovine serum (FBS) (Hyclone), 20 mM HEPES (Invitrogen), 200 μg/mL Hygromycin B (Invitrogen) and 40 μg/mL L-Proline (Sigma). The plate is incubated for 22-24 h at 37° C. 5% CO2 then growth medium is replaced with 50 μL/well of test medium containing Roswell Park Memorial Institute (RPMI) RPMI-1640 w/o phenol red, 20 mM HEPES (both from Invitrogen), and 0.2% w/v Bovine Serum Albumin (Sigma). […]

`CCCc1c(NC(=O)CC(C)(C)C(=O)[O-])cccc1OCCCOc1cc(O)c(-c2ccc(F)cc2)cc1CC.[Na+]` [Example 2, Sodium 4-[[3-[3-[2-ethyl-4-(4-fluorophenyl)-5-hydroxy-phenoxy]propoxy]-2-propyl-phenyl]amino]-2,2-dimethyl-4-oxo-butanoate] showed an IC50 [1] of 193 nM, an IC50 [2] of 1450 nM and a Lesion area ([3]; 3 mg/kg BID oral gavage) of 23700 µm². The “Macrophage area vs. vehicle” value ([3]; 3 mg/kg BID, p < 0.02) was −65%*, the “Lesion area vs. vehicle” value ([3]; 3 mg/kg BID, p < 0.049) was −53%* and the “Cholesteryl ester vs. vehicle” value ([3]; 3 mg/kg BID, p = NS) was −8%. For the same compound, the Macrophage area (brown color) ([3]; 3 mg/kg BID) was 6520 µm², the “reduction of lesion area compared to vehicle” value (“reduction of lesion area” below) ([3]; 3 mg/kg b.i.d.) was 53% and the Lesion area ([3]; 10 mg/kg BID oral gavage) was 21200 µm². For the same compound, the “Macrophage area vs. vehicle” value ([3]; 10 mg/kg BID, p < 0.002) was −84%*, the “Lesion area vs. vehicle” value ([3]; 10 mg/kg BID, p < 0.034) was −58%* and the “Cholesteryl ester vs. vehicle” value ([3]; 10 mg/kg BID, p < 0.09) was −18%. For the same compound, the Macrophage area (brown color) ([3]; 10 mg/kg BID) was 2860 µm², the “reduction of BCA cholesteryl ester (CE) content compared to vehicle” value ([3]; 10 mg/kg b.i.d., p<0.09) was 18% and the “reduction of lesion area” value ([3]; 10 mg/kg b.i.d.) was 58%. The Lesion area ([3]; 30 mg/kg BID oral gavage) was 17100 µm², the “Lesion area vs. vehicle” value ([3]; 30 mg/kg BID, p < 0.017) was −66%* and the “Cholesteryl ester vs. vehicle” value ([3]; 30 mg/kg BID, p < 0.04) was −23%*. The “Macrophage area vs. vehicle” value ([3]; 30 mg/kg BID, p < 0.09) was −54%, the Macrophage area (brown color) ([3]; 30 mg/kg BID) was 8520 µm² and the “reduction of BCA cholesteryl ester (CE) content compared to vehicle” value ([3]; 30 mg/kg b.i.d., p<0.04) was 23%. For the same compound, the “reduction of lesion area” value ([3]; 30 mg/kg oral b.i.d., p<0.017) was 66%, the Cholesteryl ester ([3]; 3 mg/kg BID) was 17.95 nmol and the Cholesteryl ester ([3]; 10 mg/kg BID) was 16.97 nmol. The Cholesteryl ester ([3]; 30 mg/kg BID) was 14.51 nmol, the Kb ([4]; read-out: inhibition of LTB4-induced calcium mobilization Kb) was 0.98 nM and the IC50 ([4]; read-out: inhibition of LTB4-induced calcium mobilization relative IC50) was 6.48 nM.
